These results are taken from PubChem BioAssay AID330 (DTP/NCI, 2004).

This assay relates to P388 leukemia ip, CD2F1 mice, survival T/C. Description: NCI In Vivo Anticancer Drug Screen. Data for tumor model P388 Leukemia (intraperitoneal) in CD2F1 (CDF1) mice. Particulars: endpoint: median survival time, higher = longer survival. The method, boiled down: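 Mice carrying the transplanted tumor received test compound or vehicle. Survival was recorded in each group, and the value is the treated-group measurement divided by that of the vehicle-treated control group.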

Setting [1] is: dose: 50.0 mg/kg/injection, schedule: Q01DX009 (ip), vehicle: saline with Tween-80.
Setting [2] is: dose: 100.0 mg/kg/injection, schedule: Q01DX009 (ip), vehicle: saline with Tween-80.
Where [3] appears, read: dose: 200.0 mg/kg/injection, schedule: Q01DX009 (ip), vehicle: saline with Tween-80.
The mark [4] stands for this setting: dose: 60.0 mg/kg/injection, schedule: Q01DX005 (ip), vehicle: Klucel (hydroxypropylcellulose) (HPC).
Where [5] appears, read: dose: 120.0 mg/kg/injection, schedule: Q01DX005 (ip), vehicle: Klucel (hydroxypropylcellulose) (HPC).
Setting [6] is: dose: 240.0 mg/kg/injection, schedule: Q01DX005 (ip), vehicle: Klucel (hydroxypropylcellulose) (HPC).
The mark [7] stands for this setting: dose: 50.0 mg/kg/injection, schedule: Q01DX009 (ip), vehicle: Klucel (hydroxypropylcellulose) (HPC).
Setting [8] is: dose: 100.0 mg/kg/injection, schedule: Q01DX009 (ip), vehicle: Klucel (hydroxypropylcellulose) (HPC).
[9] abbreviates: dose: 200.0 mg/kg/injection, schedule: Q01DX009 (ip), vehicle: Klucel (hydroxypropylcellulose) (HPC).
Where [10] appears, read: dose: 200.0 mg/kg/injection, schedule: Q01DX009 (ip), vehicle: saline.
Setting [11] is: dose: 25.0 mg/kg/injection, schedule: Q01DX009 (ip), vehicle: saline with Tween-80.
Where [12] appears, read: dose: 60.0 mg/kg/injection, schedule: Q01DX005 (ip), vehicle: saline with Tween-80.
Where [13] appears, read: dose: 120.0 mg/kg/injection, schedule: Q01DX005 (ip), vehicle: saline with Tween-80.
The mark [14] stands for this setting: dose: 240.0 mg/kg/injection, schedule: Q01DX005 (ip), vehicle: saline with Tween-80.
Setting [15] is: dose: 25.0 mg/kg/injection, schedule: Q01DX009 (ip), vehicle: saline.
[16] abbreviates: dose: 50.0 mg/kg/injection, schedule: Q01DX009 (ip), vehicle: saline.
[17] abbreviates: dose: 50.0 mg/kg/injection, schedule: Q01DX005 (ip), vehicle: saline.
Setting [18] is: dose: 100.0 mg/kg/injection, schedule: Q01DX005 (ip), vehicle: saline.

SMILES strings stand for the structures. Values joined by “and” are separate entries in the source; they are usually repeats but may differ in a detail not shown here. Identical values can stand only once. Inconclusive results and toxic doses are left out.

As to `NC(=O)C1CC(O)CN1C(=O)c1cccnc1` (stereo not given), the T/C is 101 % of control (dose: 60.0 mg/kg/injection, schedule: Q01DX005 (ip), vehicle: saline); 100 % of control (dose: 120.0 mg/kg/injection, schedule: Q01DX005 (ip), vehicle: saline); 93 % of control (dose: 240.0 mg/kg/injection, schedule: Q01DX005 (ip), vehicle: saline).
Take `CC1(C)CC(=O)C2=C(C1)NC1=C(C(=O)CC(C)(C)C1)C2c1cccs1`: the T/C runs as follows: (dose: 50.0 mg/kg/injection, schedule: Q01DX005 (ip), vehicle: saline with Tween-80) 98 % of control; (dose: 100.0 mg/kg/injection, schedule: Q01DX005 (ip), vehicle: saline with Tween-80) 98 % of control; (dose: 200.0 mg/kg/injection, schedule: Q01DX005 (ip), vehicle: saline with Tween-80) 93 % of control.
On to `CCC(=O)c1c(C)oc2ccc(O)cc12`, for which the T/C was 94 % of control (dose: 25.0 mg/kg/injection, schedule: Q04DX002 (ip), vehicle: Klucel (hydroxypropylcellulose) (HPC)); 89 % of control (dose: 50.0 mg/kg/injection, schedule: Q04DX002 (ip), vehicle: Klucel (hydroxypropylcellulose) (HPC)); 91 % of control (dose: 100.0 mg/kg/injection, schedule: Q04DX002 (ip), vehicle: Klucel (hydroxypropylcellulose) (HPC)); 90 % of control (dose: 200.0 mg/kg/injection, schedule: Q04DX002 (ip), vehicle: Klucel (hydroxypropylcellulose) (HPC)); 90 % of control (dose: 400.0 mg/kg/injection, schedule: Q04DX002 (ip), vehicle: Klucel (hydroxypropylcellulose) (HPC)).
As for `Brc1cc2ccccc2c2ccccc12`, the T/C by setting is: under setting [1], 99 % of control; under setting [2], 99 % of control; under setting [3], 93 % of control; (dose: 400.0 mg/kg/injection, schedule: Q01DX009 (ip), vehicle: saline with Tween-80) 93 % of control.
Regarding `COc1cc(O)c2c(-c3cc(O)ccc3O)cc(=O)oc2c1`, the T/C under setting [4] was 94 % of control, the T/C under setting [5] was 88 % of control and the T/C under setting [6] is 96 % of control.
Take `COC(=O)c1nc(N)nc(C(=O)OC)c1C(=O)c1ccccn1`: the T/C is, setting by setting: under setting [4], 101 % of control; under setting [5], 99 % of control.
Regarding `Nc1nc(F)nc2c1ncn2C1OC(COP(=O)(O)O)C(O)C1O` (stereo not given), the T/C was 110 % of control (dose: 12.5 mg/kg/injection, schedule: Q01DX009 (ip), vehicle: Klucel (hydroxypropylcellulose) (HPC)); 117 % of control (dose: 25.0 mg/kg/injection, schedule: Q01DX009 (ip), vehicle: Klucel (hydroxypropylcellulose) (HPC)); 120 % of control under setting [7]; 100 % of control (dose: 50.0 mg/kg/injection, schedule: Q04DX002 (ip), vehicle: saline); 153 % of control and 165 % of control under setting [8]; 107 % of control (dose: 100.0 mg/kg/injection, schedule: Q04DX002 (ip), vehicle: saline). The T/C reads like this: (dose: 175.0 mg/kg/injection, schedule: Q01DX009 (ip), vehicle: saline) 203 % of control and 213 % of control; under setting [9], 111 % of control and 215 % of control; under setting [10], 222 % of control and 224 % of control; (dose: 200.0 mg/kg/injection, schedule: Q04DX002 (ip), vehicle: saline) 111 % of control and 117 % of control; (dose: 225.0 mg/kg/injection, schedule: Q01DX009 (ip), vehicle: saline) 230 % of control and 233 % of control; (dose: 250.0 mg/kg/injection, schedule: Q01DX009 (ip), vehicle: saline) 236 % of control and 241 % of control. In addition, the T/C (dose: 400.0 mg/kg/injection, schedule: Q04DX002 (ip), vehicle: saline) is 123 % of control; the T/C (dose: 1500.0 mg/kg/injection, schedule: Q01DX001 (ip), vehicle: saline) was 155 % of control; the T/C (dose: 1600.0 mg/kg/injection, schedule: Q04DX002 (ip), vehicle: saline) was 182 % of control.
As to `C[N+]1(C)CCC(=O)CC1`, the T/C reads like this: under setting [11], 109 % of control; under setting [1], 100 % of control; under setting [2], 104 % of control.
Turning to `COc1ccc2c(c1)C1CCN(C)CC1OC2=O` (stereo not given), the T/C was 92 % of control (dose: 12.5 mg/kg/injection, schedule: Q01DX009 (ip), vehicle: saline with Tween-80); 98 % of control under setting [11]; 100 % of control and 104 % of control under setting [1].
Turning to `O=C(NC(Cc1cccs1)C(=O)O)c1ccccc1` (stereo not given), the T/C by setting is: (dose: 25.0 mg/kg/injection, schedule: Q01DX009 (ip), vehicle: other) 102 % of control; (dose: 50.0 mg/kg/injection, schedule: Q01DX009 (ip), vehicle: other) 96 % of control; (dose: 100.0 mg/kg/injection, schedule: Q01DX009 (ip), vehicle: other) 102 % of control.
With `Cc1ccc(C(=O)Nc2ccc(N(CCCl)CCCl)cc2)cc1`, the T/C was 102 % of control (dose: 6.25 mg/kg/injection, schedule: Q01DX001 (ip), vehicle: Klucel (hydroxypropylcellulose) (HPC)); 108 % of control (dose: 12.5 mg/kg/injection, schedule: Q01DX001 (ip), vehicle: Klucel (hydroxypropylcellulose) (HPC)); 110 % of control (dose: 25.0 mg/kg/injection, schedule: Q01DX001 (ip), vehicle: Klucel (hydroxypropylcellulose) (HPC)).
For `BrC/C(=N\N=C(/CBr)c1ccccc1)c1ccccc1`, the T/C runs as follows: under setting [7], 103 % of control; under setting [8], 112 % of control; under setting [9], 96 % of control.
For the molecule `Oc1ccc(C(c2ccc(O)cc2)C(c2ccc(O)cc2)c2ccc(O)cc2)cc1`, the T/C runs as follows: under setting [1], 107 % of control; under setting [2], 100 % of control; under setting [3], 113 % of control.
Regarding `O=c1c(N(CCO)CCO)cn(Cc2ccccc2)c(=O)n1Cc1ccccc1`, the T/C (dose: 25.0 mg/kg/injection, schedule: Q01DX005 (ip), vehicle: Klucel (hydroxypropylcellulose) (HPC)) was 100 % of control; the T/C (dose: 50.0 mg/kg/injection, schedule: Q01DX005 (ip), vehicle: Klucel (hydroxypropylcellulose) (HPC)) is 102 % of control; the T/C (dose: 100.0 mg/kg/injection, schedule: Q01DX005 (ip), vehicle: Klucel (hydroxypropylcellulose) (HPC)) was 103 % of control; the T/C (dose: 200.0 mg/kg/injection, schedule: Q01DX005 (ip), vehicle: Klucel (hydroxypropylcellulose) (HPC)) is 97 % of control.
Regarding `CC(C)C(C(=O)O)N(C)C(=O)c1cnc2ccccc2n1` (stereo not given), the T/C under setting [12] is 104 % of control, the T/C under setting [13] is 97 % of control and the T/C under setting [14] is 99 % of control.
For `Cc1ccc(S(=O)(=O)N/N=C2/C(=O)N(c3ccc(Cl)cc3C)C(=O)C(=O)C2c2nc3ccccc3s2)cc1` (stereo not given), in that order: 98 % of control, 103 % of control and 104 % of control.
Consider `COP(=O)(O)NS(C)(=O)=O`, for which the T/C is 100 % of control under setting [15]; 102 % of control under setting [16]; 103 % of control (dose: 100.0 mg/kg/injection, schedule: Q01DX009 (ip), vehicle: saline).
Consider `CCCCN1C(=O)C(=C/C=C/C=C2\Oc3ccccc3N2CCCS(=O)(=O)O)C(=O)N(CCCC)C1=S`, for which the T/C under setting [4] is 106 % of control, the T/C under setting [5] was 106 % of control and the T/C under setting [6] is 106 % of control.
For `COC1C(/C=C/C(C)=O)OC2OC(C)(C)OC21` (stereo not given), the T/C runs as follows: under setting [15], 106 % of control; under setting [16], 107 % of control and 112 % of control.
As to `CN(C)CCNCCN`, the T/C was 96 % of control under setting [17] and 99 % of control under setting [18].
On to `O=C(O)O.[Eu]`, for which the T/C is, setting by setting: under setting [16], 95 % of control; under setting [10], 93 % of control.
In the case of `CC1CCCC2COCN12` (stereo not given), the T/C was 105 % of control and 98 % of control (dose: 12.5 mg/kg/injection, schedule: Q01DX005 (ip), vehicle: saline); 105 % of control and 106 % of control (dose: 25.0 mg/kg/injection, schedule: Q01DX005 (ip), vehicle: saline); 101 % of control and 116 % of control and 118 % of control under setting [17]; 123 % of control and 96 % of control under setting [18]; 115 % of control (dose: 200.0 mg/kg/injection, schedule: Q01DX005 (ip), vehicle: saline).
